The text below walks through data of publication PMC12415691 (RSC Advances, 2025).

SMILES strings stand for the structures.

For the experiment, the target named is T1, rabbit ALOX15 (Oryctolagus cuniculus, UniProt P12530).
T1 sequence (P12530 1-663): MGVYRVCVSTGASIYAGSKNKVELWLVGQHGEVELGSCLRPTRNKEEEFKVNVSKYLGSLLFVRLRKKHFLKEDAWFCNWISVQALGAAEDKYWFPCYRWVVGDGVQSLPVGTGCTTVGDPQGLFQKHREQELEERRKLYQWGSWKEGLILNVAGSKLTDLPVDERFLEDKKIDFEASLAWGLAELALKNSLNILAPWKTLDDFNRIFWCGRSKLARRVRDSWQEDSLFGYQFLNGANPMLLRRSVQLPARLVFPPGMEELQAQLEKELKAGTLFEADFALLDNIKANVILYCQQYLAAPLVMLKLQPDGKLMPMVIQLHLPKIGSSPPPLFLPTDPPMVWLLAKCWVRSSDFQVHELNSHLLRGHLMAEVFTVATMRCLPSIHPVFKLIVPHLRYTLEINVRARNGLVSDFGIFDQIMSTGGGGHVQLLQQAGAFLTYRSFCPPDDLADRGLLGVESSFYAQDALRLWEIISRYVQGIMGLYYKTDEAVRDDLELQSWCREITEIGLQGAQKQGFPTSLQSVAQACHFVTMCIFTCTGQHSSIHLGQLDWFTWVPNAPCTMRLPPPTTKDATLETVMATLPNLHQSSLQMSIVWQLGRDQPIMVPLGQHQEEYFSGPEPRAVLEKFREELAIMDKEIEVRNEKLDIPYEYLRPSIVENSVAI
Nature of the experiment: Kinetic measurements of LA/AA oxygenation with inhibitor. In kind it is biochemical. Particulars: best fit of kinetic data.

For `CCCCCCCCOC(=O)NS(=O)(=O)Nc1ccc(-c2cc3ccccc3[nH]2)cc1OC` [compound 3, Octyl (N-(4-(1H-indol-2-yl)-2-methoxyphenyl)sulfamoyl)-carbamate], the “mode of inhibition of AA oxygenation” value (AA as substrate) is “uncompetitive mode of inhibition”. Moreover, for the setting “LA as substrate”, the “mode of inhibition of LA oxygenation” value is “uncompetitive mode of inhibition”.
